Data from patent publication US9788539B2, “Platelet protection solution having beta-galactosidase and sialidase inhibitors” (Velico Medical, Inc., priority 2011, dated 2017).
Entries after “also recorded” stand apart in the source; their conditions may differ.

What was measured:
[1] = system: mouse platelets; assay: Survival of mouse platelets stored 20 hrs at RT in pPAS with or without DGJ after transfusion; format: in vivo; settings: 2 mM DGJ in pPAS, 30% plasma 70% pPAS, 20-hr storage at RT, vs pPAS alone
Experimental: Materials and Methods: Blood was obtained from anesthetized 8 weeks old C57/Bl6 mice by retroorbital bleeding. Platelets and platelet poor plasma (PPP) were prepared by differential centrifugation as described. Isolated platelets were labeled with 2.5 μM of CMFDA for 15 min. Following staining, platelets were pelleted and resuspended in 500 μl of plasma, or in a mixture of 30% plasma and 70% pPAS (i.e., PPS9 formulation in Tables 1 and 3 without the 2 mM of DGJ shown in the tables) or pPAS+DGJ (2 mM) (PPS9 formulation in Tables 1 and 3). Platelets were stored for 20 hrs at room temperature and transfused into 8 weeks old syngeneic mice. Non-stored fresh platelets in plasma were used as control. Platelet survivals were determined by intravenous injections CMFDA-labeled mouse platelets, respectively. Blood was collected by retroorbital bleeding at 5 min, 2, 24, 48 and 72 hrs. The percentages of CMFDA-positive platelets were determined by flow cytometry.

[2] = system: mouse platelets; assay: Sialidase-induced β-galactose exposure on platelets, lectin binding by flow cytometry; format: cell-based
[3] = system: platelet GPIbα and GPV receptor surface expression; assay: Recombinant TACE-mediated GPIbα and GPV shedding from platelets; format: cell-based, mouse
[4] = system: mouse platelets; assay: Surface receptor loss of mouse platelets stored at room temperature; format: cell-based; settings: mouse platelets stored at room temperature for 6 h, with fetuin (30-60% loss without)
[5] = system: mouse platelets; assay: Sialidase (neuraminidase)-induced loss of platelet surface receptors, flow cytometry and immunoblot; format: cell-based
[6] = system: mouse platelets; assay: β-galactose exposure by FITC RCA-1 lectin binding with fetuin as competitive sialidase substrate; format: cell-based; settings: fetuin 1 mg/mL
[7] = system: THP-1 cells; assay: Ingestion of β-galactosidase treated platelets by THP-1 cells; format: cell-based; settings: fresh human platelets treated with β-galactosidase
Experimental: FIG. 44 is a bar graph showing that […] cells ingestion of human platelets correlates with decrease in β-galactose exposure. Isolated human platelets were labeled with CM-Orange, added to THP-1 cells and incubated for 30 min at 37° C. Ingestion of fluorescently labeled control fresh room temperature platelets and platelets treated by β-galactosidase was detected using flow cytometry, as an increase in […] associated orange fluorescence.
We treated fresh isolated platelets from healthy volunteers with β-galactosidase, which cleaves terminal β-galactose from platelet surfaces.

## OC[C@H]1NC[C@H](O)[C@@H](O)[C@H]1O [DGJ, 1-deoxygalactonojirimycin]
[1]
  survival of the transfused platelets: significantly improved the survival of the transfused platelets

## CNC(=O)[C@H](Cc1c[nH]c2ccccc12)NC(=O)[C@@H](CC(=O)NO)CC(C)C [GM6001]
[2]
  β-galactose exposure induced by sialidase in presence of inhibitor: did not prevent β-galactose exposure
[3]
  receptor shedding by rTACE in presence of inhibitor: inhibited receptor shedding

## fetuin: neuraminidase (NA) substrate, competitive sialidase substrate
[4]
  loss of GPIb and GPV: 10-20%
[5]
  loss (shedding) of platelet GPIbα and GPV induced by sialidase/neuraminidase, in presence of inhibitor: completely prevented this loss
[6]; fresh platelets at room temperature
  RCA-1 binding to fresh platelets: no effect
[6]; mouse platelet rich plasma, refrigeration 48 h
  sialic acid hydrolysis (β-galactose exposure, RCA-1 binding) during platelet storage: inhibits the hydrolysis of sialic acid from platelet glycans; also recorded: greatly inhibits sialic acid hydrolysis

## rTACE: recombinant TACE (ADAM17) metalloprotease
[3]; platelets treated with rTACE
  GPIbα released from platelets: 47%±6
  GPV released from platelets: 18%±12
[3]; platelets treated with rTACE, not shown
  GPIX and αIIbβ3 released from platelets: negligible amounts

## β-galactosidase
[7]
  ingestion of platelets by THP-1 cells compared to control platelets: 4 fold
